# Test results reported in US12233087B2, “Palladium hyaluronic acid particles and methods of managing cancer or angiogenic conditions” (Emory University, priority 2018, dated 2025).
# Like-named read-outs stand apart in the source and are kept apart here.
# Experiments:
# melanoma = conditions: Clin Cancer Res. 2008, 14:5743-5748; cited from earlier work
# [1] = target: N-myristoyltransferase 1 (NMT1) (Homo sapiens, UniProt P30419); conditions: reported in the literature; cited from earlier work
# Sequence of N-myristoyltransferase 1 (NMT1) (P30419 whole entry, species assumed): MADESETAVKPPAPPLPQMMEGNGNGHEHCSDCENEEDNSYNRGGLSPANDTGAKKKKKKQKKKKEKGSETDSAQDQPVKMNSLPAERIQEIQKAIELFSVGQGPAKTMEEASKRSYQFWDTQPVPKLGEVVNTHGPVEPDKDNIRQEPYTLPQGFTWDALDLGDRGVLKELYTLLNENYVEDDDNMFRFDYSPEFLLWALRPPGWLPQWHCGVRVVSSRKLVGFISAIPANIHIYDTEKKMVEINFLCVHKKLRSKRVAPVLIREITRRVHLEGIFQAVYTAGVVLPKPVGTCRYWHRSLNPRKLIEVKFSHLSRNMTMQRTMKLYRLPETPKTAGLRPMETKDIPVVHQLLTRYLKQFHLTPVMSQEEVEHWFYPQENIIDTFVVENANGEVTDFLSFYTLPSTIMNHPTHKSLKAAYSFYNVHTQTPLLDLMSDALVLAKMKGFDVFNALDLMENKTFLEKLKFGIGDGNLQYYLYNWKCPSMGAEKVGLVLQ
# LM36R xenograft tumor = assay: Gene array / whole-transcriptome expression analysis of treated tumors; type: in vivo, human
# Experimental: Gene array was performed on all tumors. […] By varying the delivery process of a single drug, one might be able to prevent resistance.
# RNA Extraction and QC: RNA was extracted using the Qiagen miRNEasy™ kit with on column DNAse treatment. Tissue was lysed and homogenized in Qiazol™ with a rotor-stator probe homogenizer for 40 seconds or until fully disrupted (1 ml Qiazol™ per 100 mg of tissue). RNA was eluted in 50 ul nuclease free water. One microliter was used to determine OD (optical density) values on a Nanodrop 1000. One microliter was used to assess sample profiles on the Agilent 2100 using the RNA 6000 Nano assay. Total RNA (250 ng) was amplified and labeled using the ThermoFisher Scientific Illuina™ TotalPrep™ RNA Amplification kit. Labeled cRNA was hybridized to Illumina HT12™ bead array. Image acquisition and data extraction were performed.
# [2] = system: LM36R human melanoma cells; assay: LM36R vemurafenib-resistant melanoma xenograft tumor growth in nude mice; type: in vivo, athymic Nu/Nu nude male mice; conditions: 5 mg of drug/kg per injection, bi-weekly tail vein injections, 4 weeks, n=5 per group; p-value 0.048 at week 4
# Experimental: Nude male mice were inoculated with LM36R (5.0×10^5 cells), a human cell line of melanoma that is resistant to vemurafenib, and then treated with HANPs over the course of four weeks.
# Vemurafenib-resistant LM36R human melanoma cells were inoculated (5.0×10^5 cells/mouse) into the right flank of athymic Nu/Nu nude male mice (Crl:NU-Foxn1^nu strain code 088)) n=5 per group, and progression of tumor was recorded using the volume model of length×(width)×0.52. Mice were split into four groups consisting of a control (empty HANP), free Tris DBA-Pd, HANP with Tris DBA-Pd, and HANP with Tris DBA-Pd and aIGF1R antibody. Free Tris DBA-Pd was first dissolved in DMSO and then mixed with Kolliphor EL™. At last, the mixture was diluted by H2O before injection at concentration of 1 mg/mL of DBA. The ratio of DMSO, Kolliphor EL™ and H2O was controlled as 1:2:7 (v/v). The treatments were administered through bi-weekly tail vein injections over the course of 4 weeks (5 mg of drug/kg per injection). Tumor samples were analyzed for CD44 (hyaluronate receptor) expression by immunohistochemistry.
# [3] = general statement, water, cited from earlier work
# [4] = Dispersion of free vs HANP-loaded Tris DBA-Pd in water, FBS and cell culture media; type: physicochemical
# Experimental: Hyaluronic Acid (HA)-5β-cholanic acid conjugate was synthesized by linking the carboxyl group of HA with the amino group on 5β-cholanic acid in the presence of EDC and NHS (FIG. 1). Hyaluronic Acid nanoparticles/Tris-DBA palladium were prepared. Water-insoluble Tris DBA-Pd was physically encapsulated into the hydrophobic cavities by a high-pressure homogenizer. This allowed for the dispersion of Tris DBA-Pd under physiological conditions. After freeze-drying, 40 mg of HANPs were dispersed in 8 mL of distilled water and 10 mg of Tris DBA-Pd was dissolved in 2 mL dimethyl sulfoxide (DMSO). The Tris DBA-Pd solution was slowly added into the HANP in high pressure homogenizer and homogenized for 5 min. Finally, the resulting mixture was dialyzed for 4 hours against an excess amount of distilled water to remove unloaded drugs and organic solvent, followed by lyophilization.
# To verify the encapsulation of Tris DBA-Pd, the size changes were compared before and after loading.
# IGF1R = assay: Immunohistochemistry of tumor xenografts for IGF1R; type: in vivo, human; conditions: IHC, LM36R xenograft
# Experimental: Immunohistochemistry was performed to qualitatively assess expression of target genes. […] To assess the impact of our treatments on IGF1R expression, IHC was used to stain the tumor xenografts with antibodies against IGF1R.
# [5] = at 25° C.; cited from earlier work
compound,measurement,setting,value
"O=C(/C=C/c1ccccc1)/C=C/c1ccccc1.O=C(/C=C/c1ccccc1)/C=C/c1ccccc1.O=C(/C=C/c1ccccc1)/C=C/c1ccccc1.[Pd].[Pd] [free Tris DBA-Pd, Tris(dibenzylideneacetone)dipalladium]",effect on melanoma growth,melanoma,effective against melanoma growth
same,activity against NMT1,[1],activity against the enzyme N-myristoyltransferase 1
same,SCG2 (secretogranin 2) expression,LM36R xenograft tumor,downregulated
same,inhibition of growth of LM36R tumors,[2],showed efficacy
same,solubility,[3]; listed as Tris (dibenzylideneacetone) dipalladium,poor solubility
same,solubility,[3]; listed as Tris DBA-Pd,Water-insoluble
same,"behaviour in water, FBS, and cell culture media (precipitation / dispersion)",[4],immediately precipitated
Tris DBA-Pd HANPs coupled with anti-IGF1R antibodies: Tris DBA-Pd HANP with anti-IGF1R monoclonal antibodies (Dalotuzumab) conjugated onto the surface,intensity of IGF1R staining,IGF1R,decreased the intensity of IGF1R staining more so than the other groups
CCCCCCCC [octane],percent solubility in water by weight,[5],0.63×10^−4 % w/w
